Data published in patent US10662193B2, “Carbazole and carboline compounds for use in the diagnosis, treatment, alleviation or prevention of disorders associated with amyloid or amyloid-like proteins” (AC IMMUNE SA, priority 2014, dated 2020).

Target: Tau enriched paired helical filaments (PHF) from human Alzheimer's disease (AD) brains (Homo sapiens, UniProt P10636)
Test: Assay 3: backscattering interferometry, dissociation constants (Kd)
Type: binding
Settings: PHF batch 6 (pooled frontal cortex, 25 AD patients); read-out: [Kd] on PHF batch 6
Excerpt: Assay 3 (Backscattering Interferometry):
Determination of Dissociation Constants (Kd) of Compounds of this Invention
Enrichment of Paired Helical Filaments (PHF's) from Human Alzheimer's Disease Brains
For backscattering interferometry, Tau enriched paired helical filaments (PHF) from human Alzheimer's disease (AD) brains were used as a target. Due to the limited availability of tissues, to determine dissociation constants (Kd) of compounds of this invention to the target, two different batches of enriched PHF were used. These batches are identified as batch 6 and 7 and were prepared as follows.
PHF batch number 6 was prepared starting from 25 g frontal cortical tissue from post-mortem brains of 25 Alzheimer's disease (AD) patients which were obtained from the London Tissue Bank. The mean age at death for the AD patients was 76 years (48% females). Brain samples were characterized for Braak disease stage (Braak and Braak, 1991), with most donors displaying a stage VI. The postmortem interval between death and brain dissection was between 6 and 65 h. Human brain homogenates were prepared by SB Drug Discovery (Glasgow, Scotland, UK) from the post-mortem cortical tissue of the 25 patients). Each tissue (1 g) was homogenized with a Dounce glass homogenizer in 1.5 mL 100 mM 2-(N-morpholino) ethane-sulfonic acid (MES) pH 6.8, 0.75 M NaCl, 1 mM EGTA, 0.5 mM MgSO4, 2 mM DTT containing protease inhibitors (Complete; Roche 11697498001). For each sample, two aliquots containing 0.5 g brain homogenates in 0.75 mL were shipped to AC Immune SA on dry ice and stored at −80° C. For the enrichment of PHF, 1 aliquot per donor corresponding to total 12.5 g of brain tissue were thawed on ice and then incubated at 4° C. for 20 min to depolymerize any residual microtubules. All samples were then pooled and transferred to three polycarbonate centrifuge bottles (16×76 mm; Beckman 355603).
PHF batch number 7 was prepared starting from 32 g of parietal cortex tissue from post-mortem brain of one Alzheimer's disease (AD) patient was obtained from an external provider (Tissue Solution). The patient was a person who died for end stage AD. The brain sample was collected 5 h post-mortem and characterized for Braak disease stage (Braak and Braak, 1991) as stage VI. The method used for the PHF enrichment was modified from published procedures (Jicha et al., 1997; Rostagno and Ghiso, 2009). Around 16 g of the AD human brain was thawed on ice and homogenized with 50 ml of homogenization buffer [0.75 M NaCl in RAB buffer (100 mM 2-(N-morpholino) ethanesulfonic acid (MES), 1 mM EGTA, 0.5 mM MgSO4, 2 mM DTT, pH 6.8) supplemented with protease inhibitors (Complete; Roche 11697498001)] in a glass Dounce homogenizer. The homogenate was then incubated at 4° C. for 20 min to let depolymerize any residual microtubules, before being transferred into polycarbonate centrifuge bottles (16×76 mm; Beckman 355603). For both purifications, brain homogenates were then centrifuged at 11,000 g (12,700 RPM) in an ultracentrifuge (Beckman, XL100K) for 20 min at 4° C. using the pre-cooled 70.1 rotor (Beckman, 342184). Pellets were kept on ice. Supernatants were pooled into polycarbonate bottles and centrifuged again at 100,000 g (38,000 RPM) for 1 h at 4° C. in the 70.1 Ti rotor to isolate PHF-rich pellets, whereas soluble Tau remained in the supernatants. The pellets from the first and second centrifugations were resuspended in 120 mL of extraction buffer [10 mM Tris-HCl pH 7.4, 10% sucrose, 0.85 M NaCl, 1% protease inhibitor (Calbiochem 539131), 1 mM EGTA, 1% phosphatase inhibitor (Sigma P5726 and P0044)]. The solution was then transferred into polycarbonate centrifuge bottles (16×76 mm; Beckman 355603) and centrifuged at 15,000 g (14,800 RPM) in an ultracentrifuge (Beckman, XL100K) for 20 min at 4° C. using the 70.1 Ti rotor. […]

Tau enriched paired helical filaments (PHF) from human Alzheimer's disease (AD) brains, sequence (P10636 623-708 limits assumed): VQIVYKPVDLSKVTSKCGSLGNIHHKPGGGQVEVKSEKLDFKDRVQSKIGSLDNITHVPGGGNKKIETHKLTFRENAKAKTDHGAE

| Kd [nM] | SMILES |
| --- | --- |
| 33 ± 5 | Cn1c2ccncc2c2ccc(Nc3ccc(F)c(F)c3)nc21 [Example 2] |
| 19 ± 3 | Cn1c2ccncc2c2ccc(Nc3cccc(OCCF)c3)nc21 [Example 8] |
